Like-named read-outs stand apart in the source and are kept apart here.
How the values were obtained:
[1] = test system: KNK65MA FDH (formate dehydrogenase); experiment: Haloketone tolerance: residual FDH activity of cell-free extract after standing with haloketone; assay type: biochemical, Thiobacillus sp. KNK65MA; conditions: 30° C.
[2] = test system: FDH derived from the KNK607 strain; experiment: as above; assay type: biochemical; conditions: 30° C.
Candida boidinii FDH = target: T1, Candida boidinii FDH (Candida boidinii, UniProt O13437); experiment: biochemical
T1 sequence (O13437 1-364): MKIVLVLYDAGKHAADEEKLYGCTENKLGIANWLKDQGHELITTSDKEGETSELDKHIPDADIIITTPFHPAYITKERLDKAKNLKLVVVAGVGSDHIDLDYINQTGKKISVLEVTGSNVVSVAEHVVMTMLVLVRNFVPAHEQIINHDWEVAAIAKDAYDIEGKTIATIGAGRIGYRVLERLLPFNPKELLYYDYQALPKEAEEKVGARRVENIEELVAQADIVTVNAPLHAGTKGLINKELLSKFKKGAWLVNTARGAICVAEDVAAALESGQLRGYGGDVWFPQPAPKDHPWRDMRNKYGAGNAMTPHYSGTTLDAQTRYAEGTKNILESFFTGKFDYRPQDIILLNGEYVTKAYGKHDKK

[3] = Formate dehydrogenase activity assay (NADH formation, absorbance at 340 nm) of the purified enzyme; assay type: biochemical, Thiobacillus sp. KNK65MA; conditions: for Specific activity: 0.1 M phosphate buffer pH 7, 500 mM sodium formate, 5 mM NAD
Procedure: In the present invention, the formate dehydrogenase activity of the polypeptide is assayed by quantitating the increase in absorbance at 340 nm resulting from the production of NADH at 30° C. or 40° C. in a 0.1 M phosphate buffer (pH 7) containing 500 mM sodium formate and 5 mM NAD.
The molecular weight determination is by gel permeation chromatography. The Km value for formate is determined by measuring the activity under the above conditions of activity assay (30° C., NAD 5 mM) while the concentration of sodium formate is varied, and the Km value for NAD is determined under the above conditions of activity assay (30° C., sodium formate 500 mM) while the concentration of NAD is varied. […]
The activity of the formate dehydrogenase obtained was assayed by quantitating the increase in absorbance at 340 nm resulting from formation of NADH in 0.1 M phosphate buffer (pH 7) containing 500 mM sodium formate and 5 mM NAD at 30° C. or 40° C. In this connection, the amount of the enzyme yielding […] of NADH in 1 minute was defined as 1 unit. Protein assay was performed by the method of Lowry using BSA as standard protein. The specific activity of the purified formate dehydrogenase was 7.6 u/mg protein (30° C.) or 13.3 μ/mg protein (40° C.)
The Km values for formate and NAD were determined as follows. Thus, the Km value for formate was determined by measuring the activity with the concentration of sodium formate varied under the above specific activity assay conditions (30° C., NAD 5 mM) and the Km value for NAD was determined by measuring the activity with the concentration of NAD varied under the above specific activity assay conditions (30° C., sodium formate 500 mM). In FIG. 3 and FIG. 4, V represents the reaction velocity of the enzyme, S represents the concentration of the substrate, and the intercept of the abscissa represents −1/Km. […]

[4] = test system: ethyl 4-chloroacetoacetate reduction system (NAD regeneration); experiment: Coenzyme regeneration in the enzymatic reduction system of ethyl 4-chloroacetoacetate; assay type: biochemical; conditions: 6 g ethyl 4-chloroacetoacetate in 60 ml, butyl acetate/water, pH 6.5, 30° C., 3.5 hours, reductase from HB101 (pNTS1M1)
Procedure: Escherichia coli HB101 (pFT002) expressing the KNK65MA-derived FDH as acquired in Example 7 and Escherichia coli HB101 (pFA002) expressing KNK607-derived FDH (WO 02/46427) were respectively inoculated into 60 ml of the liquid medium shown in Table 5 sterilized in a 500 ml Sakaguchi flask and shake-cultured at 37° C. for 9 hours. The resulting culture medium was inoculated into 100 ml of the liquid medium shown in Table 5 sterilized in a 500 ml Sakaguchi flask in size of 1% and shake-cultured at 37° C. for 46 hours. The resulting culture medium was centrifugally concentrated 5-fold and sonicated to give an FDH enzyme solution. On the other hand, for use as the reductase enzyme for reducing a 4-haloacetoacetate, the recombinant Escherichia coli HB101 (pNTS1M1)(FERM BP-8059) was inoculated into 100 ml of the medium shown in Table 5 sterilized in a 500 ml Sakaguchi flask, shake-cultured at 37° C. for 23 hours, and concentrated 10-fold and the cells were disrupted. […] After completion of the reaction, the reaction mixture was extracted with butyl acetate and the extract was analyzed. […]
The quantitation of ethyl 4-chloro-3-hydroxybutyrate was carried out by gas chromatography. […]

[5] = KNK65MA FDH extract, haloketone 20 mM added 1:1, 5 hours, untreated extract = 100%
[6] = KNK607 FDH extract, haloketone 20 mM added 1:1, 5 hours, untreated extract = 100%
[7] = Candida boidinii FDH extract, haloketone 20 mM added 1:1, 30° C., 5 hours, untreated extract = 100%, read-out: Residual FDH activity (%)
[8] = […], haloketone 20 mM added 1:1, 5 hours, […]
[9] = […], haloketone 20 mM added 1:1, 30° C., 5 hours, […], read-out: Residual FDH activity (%)
[10] = […], haloketone 20 mM added 1:1, 28.5 hours, […]

Molecule: O=C(CO)CCl [1-Chloro-3-hydroxy-2-propanone, 1-chloro-3-hydroxy-2-propanone]
- Residual FDH activity (%) [1, 5]: 80.1%
- Residual FDH activity (%) [2, 6]: 11.7%
- remaining activity at 20000 µM (Candida boidinii FDH; [7]): 14.7%

Molecule: COC(=O)CC(=O)CCl [Methyl4-chloroacetoacetate, methyl 4-chloroacetoacetate]
- Residual FDH activity (%) [1, 8]: 100.0%
- Residual FDH activity (%) [2, 8]: 13.1%
- remaining activity at 20000 µM (Candida boidinii FDH; [9]): 14.9%

Molecule: chloroacetone
- Residual FDH activity (%) ([1]; 5 hours): 100.0%
- Residual FDH activity (%) ([2]; 5 hours): 46.2%
- Residual FDH activity (%) (Candida boidinii FDH; 30° C., 5 hours): 38.2%

Molecule: O=C(CCl)c1cccc(Cl)c1 [2,3′-Dichloroacetophenone, 2,3′-dichloroacetophenone]
- Residual FDH activity (%) [1, 8]: 97.9%
- Residual FDH activity (%) [2, 8]: 27.0%
- remaining activity at 20000 µM (Candida boidinii FDH; [9]): 7.4%

Molecule: O=C(CCl)c1cccnc1 [2-Chloro-1-(3-pyridinyl)ethanone, 2-chloro-1-(3-pyridinyl)ethanone]
- Residual FDH activity (%) [1, 8]: 90.1%
- Residual FDH activity (%) [2, 8]: 6.1%
- remaining activity at 20000 µM (Candida boidinii FDH; [9]): 1.5%

Molecule: O=C(CCl)COC(=O)c1ccccc1 [1-(Benzoyloxy)-3-chloro-2-propanone, 1-(benzoyloxy)-3-chloro-2-propanone]
- Residual FDH activity (%) ([1]; KNK65MA FDH extract, haloketone 10 mM added 1:1, 5 hours, untreated extract = 100%): 100.7%
- Residual FDH activity (%) ([2]; KNK607 FDH extract, haloketone 10 mM added 1:1, 5 hours, untreated extract = 100%): 1.6%
- remaining activity at 10000 µM (Candida boidinii FDH; Candida boidinii FDH extract, haloketone 10 mM added 1:1, 30° C., 5 hours, untreated extract = 100%, read-out: Residual FDH activity (%)): 4.5%

Molecule: CCOC(=O)CC(=O)CCl [Ethyl4-chloroacetoacetate, ethyl 4-chloroacetoacetate]
- Residual FDH activity (%) [1, 8]: 100.7%
- Residual FDH activity (%) [2, 8]: 20.1%
- remaining activity at 20000 µM (Candida boidinii FDH; [9]): 14.3%

Molecule: CCOC(=O)CC(=O)CBr [Ethyl4-bromoacetoacetate, ethyl 4-bromoacetoacetate]
- Residual FDH activity (%) [1, 5]: 24.1%
- Residual FDH activity (%) [2, 6]: 0.0%
- remaining activity at 20000 µM (Candida boidinii FDH; [7]): 0%

Molecule: CCOC(=O)C(Cl)C(C)=O (centres unmarked) [Ethyl2-chloroacetoacetate, ethyl 2-chloroacetoacetate]
- Residual FDH activity (%) [1, 8]: 100.0%
- Residual FDH activity (%) [2, 8]: 2.5%
- remaining activity at 20000 µM (Candida boidinii FDH; [9]): 5.4%

Molecule: CCOC(=O)CC(=O)CI [Ethyl4-iodoacetoacetate, ethyl 4-iodoacetoacetate]
- Residual FDH activity (%) [1, 5]: 12.1%
- Residual FDH activity (%) [2, 6]: 0.0%
- remaining activity at 20000 µM (Candida boidinii FDH; [7]): 0%

Molecule: O=C(CCl)c1ccccc1 [2-Chloroacetophenone, 2-chloroacetophenone]
- Residual FDH activity (%) [1, 10]: 100.7%
- Residual FDH activity (%) [2, 10]: 100.0%
- remaining activity at 20000 µM (Candida boidinii FDH; 28.5 h, read-out: Residual FDH activity (%)): 29.4%

Molecule: CC(C)(C)OC(=O)N[C@@H](Cc1ccccc1)C(=O)CCl [1,1-dimethylethyl [(1S)-3-chloro-2-oxo-1-(phenylmethyl)propyl]carbamate]
- Residual FDH activity (%) ([1]; KNK65MA FDH extract, haloketone 2 mM added 1:1, 5 hours, untreated extract = 100%): 100.0%
- Residual FDH activity (%) ([2]; KNK607 FDH extract, haloketone 2 mM added 1:1, 5 hours, untreated extract = 100%): 81.6%
- remaining activity at 2000 µM (Candida boidinii FDH; Candida boidinii FDH extract, haloketone 2 mM added 1:1, 30° C., 5 hours, untreated extract = 100%, read-out: Residual FDH activity (%)): 31.3%

B1: FDH derived from KNK65MA: Haloketone-tolerant NAD-dependent formate dehydrogenase from Thiobacillus sp. KNK65MA, amino acid sequence SEQ ID NO:1 (protein, listed as Thiobacillus sp.)
chain: MAKILCVLYDDPVDGYPKTYARDDLPKIDHYPGGQTLPTPKAIDFTPGQLLGSVSGELGLRKYLEANGHTFVVTSDKDGPDSVFEKELVDADVVISQPFWPAYLTPERIAKAKNLKLALTAGIGSDHVDLQSAIDRGITVAEVTYCNSISVAEHVVMMILGLVRNYIPSHDWARKGGWNIADCVEHSYDLEGMTVGSVAAGRIGLAVLRRLAPFDVKLHYTDRHRLPEAVEKELGLVWHDTREDMYPHCDVVTLNVPLHPETEHMINDETLKLFKRGAYIVNTARGKLADRDAIVRAIESGQLAGYAGDVWFPQPAPKDHPWRTMKWEGMTPHISGTSLSAQARYAAGTREILECFFEGRPIRDEYLIVQGGALAGTGAHSYSKGNATGGSEEAAKFKKAG
- Km ([3]; 30° C., NAD 5 mM, sodium formate varied, read-out: Km value for formate): 1600 µM
- Km ([3]; 30° C., sodium formate 500 mM, NAD varied, read-out: Km value for NAD): 48 µM
- Specific activity ([3]; 30° C.): 7.6 u/mg protein
- Specific activity ([3]; 40° C.): 13.3 μ/mg protein
- Conversion rate to ethyl 4-chloro-3-hydroxybutyrate [4]: 100%
